Experimental data from US12552826B2, “PRMT5 inhibitors” (Merck Sharp & Dohme LLC, priority 2018, dated 2026).

target: T1, PRMT5 (Homo sapiens, UniProt O14744); test: PRMT5 Cell Target Engagement (TE) Assay; type: cell-based; conditions: MCF-7 cells, 3 days treatment, nuclear SDMA by high content imaging
T1 construct: endogenous in cells; host or cells: MCF-7
Source text: The PRMT5 TE assay is a biomarker assay for identifying compounds that inhibit symmetric dimethylation of arginine (SDMA) of PRMT5 substrates. The following substrates have been reported for PRMT5: Histone H2A and H4 R3, Histone H3 R2, Histone H3 R8, spliceosome Sm proteins, ribosomal protein RPS10, p53, FEN1, nucleoplasmin, nucleolin, EGFR and EBNA. The assay will focus on detecting symmetrically dimethylated nuclear proteins using high content imaging technology. Detection of the expression of symmetrically dimethylated nuclear proteins is through a mixture of primary rabbit monoclonal antibodies to SDMA (CST 13222), which in turn recognized by an Alexafluor 488 dye-conjugated anti-rabbit IgG secondary antibody. The IN Cell Analyzer 2200 or Opera-Phenix measures nuclear Alexafluor 488 fluorescent dye intensity that is directly related to the level of expression of symmetrically dimethylated nuclear proteins at the single cell level. Nuclear AF488 dye intensities are compared to the mean value for DMSO treated cells (MIN) to report percent of inhibition for each compound-treated well.
In this assay, the cell potency (EC50) of each compound was determined from a ten point (1:3 serial dilution; top compound concentration of 10000 nM) titration curve using the following outlined procedure. Each well of a BD falcon collagen coated black/clear bottom 384-well plate was seeded with 4000 MCF-7 cells in 30 μl media and allowed to attach for 5 hours. Media is ATCC-formulated Eagle's Minimum Essential Medium, Catalog No. 30-2003. The following components were added to the base medium: 0.01 mg/mL human recombinant insulin; fetal bovine serum to a final concentration of 10%. Additional 30 μl of media containing 2× compounds were added to each well. Cells were treated for 3 days in 37° C. CO2 incubator. On day 3, cells were fixed with Cytofix, permeabilized with 0.4% Triton-X-100/Cytofix, and washed with D-PBS without Ca/Mg. Cells were blocked with Licor Odessey blocking reagent for 1 hour at room temperature, followed by incubation with anti-SDMA (1:1000) antibody at 4° C. overnight. 1° antibody was removed, followed by three washings with DPBS without Ca/Mg and 0.05% Tween20. Hoechst (5 μg/mL), Cell Mask deep stain (1:2000) and Alexa488-conjugated goat anti-rabbit IgG (2 μg/mL) was added for 1 hour at room temperature. A final washing step (three washes) was performed before sealing plate for imaging on In Cell Analyzer 2200 or Opera-Phenix. Images from analyzer were uploaded to Columbus for image analysis. IC50 values were determined by 4 parameters robust fit of percent fluorescence units vs. (Log10) compound concentrations.

T1 sequence (O14744 whole entry): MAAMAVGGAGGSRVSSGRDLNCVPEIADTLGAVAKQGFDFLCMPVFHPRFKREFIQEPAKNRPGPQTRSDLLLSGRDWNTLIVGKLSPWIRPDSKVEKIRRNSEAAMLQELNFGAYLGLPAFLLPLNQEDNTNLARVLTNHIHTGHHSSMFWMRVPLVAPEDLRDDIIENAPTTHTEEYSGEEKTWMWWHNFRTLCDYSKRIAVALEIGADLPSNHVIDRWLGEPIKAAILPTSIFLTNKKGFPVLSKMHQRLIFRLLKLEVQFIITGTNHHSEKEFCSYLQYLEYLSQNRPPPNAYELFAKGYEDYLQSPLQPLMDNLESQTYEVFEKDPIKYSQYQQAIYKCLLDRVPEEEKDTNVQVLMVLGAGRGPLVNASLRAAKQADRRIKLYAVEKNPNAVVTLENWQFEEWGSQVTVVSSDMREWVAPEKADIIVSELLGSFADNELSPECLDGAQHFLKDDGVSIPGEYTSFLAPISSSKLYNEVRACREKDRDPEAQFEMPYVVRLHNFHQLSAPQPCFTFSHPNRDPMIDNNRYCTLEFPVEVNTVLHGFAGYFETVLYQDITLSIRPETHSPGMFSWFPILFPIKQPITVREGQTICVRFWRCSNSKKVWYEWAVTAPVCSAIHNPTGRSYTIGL
T1 sequence (Q9BQA1 whole entry partner): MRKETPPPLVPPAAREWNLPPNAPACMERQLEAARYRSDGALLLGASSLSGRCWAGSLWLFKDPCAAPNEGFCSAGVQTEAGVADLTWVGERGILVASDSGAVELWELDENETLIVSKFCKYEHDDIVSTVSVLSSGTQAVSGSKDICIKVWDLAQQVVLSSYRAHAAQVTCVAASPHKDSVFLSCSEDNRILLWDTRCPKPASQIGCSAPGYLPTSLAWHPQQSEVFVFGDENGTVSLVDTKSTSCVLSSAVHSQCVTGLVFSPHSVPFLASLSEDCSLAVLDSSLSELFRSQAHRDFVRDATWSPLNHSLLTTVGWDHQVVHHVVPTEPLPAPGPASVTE

Row | SMILES | EC50
1 | C=C(c1cc(F)cc(C(F)F)c1)[C@H]1O[C@@H](n2ccc3c(N)ncnc32)[C@H](O)[C@]1(C)O [Example 82, (2R,3S,4R,5R)-5-(4-amino-7H-pyrrolo[2,3-d]pyrimidin-7-yl)-2-(1-(3-(difluoromethyl)-5-fluorophenyl)vinyl)-3-methyltetrahydrofuran-3,4-diol] | 280 nM
2 | C[C@]1(O)[C@@H](O)[C@H](n2ccc3c(N)ncnc32)O[C@@H]1[C@@](C)(O)c1ccnc(C(F)F)c1 [Example 81, 7-{6-deoxy-5-C-[2-(difluoromethyl)pyridin-4-yl]-3-C-methyl-beta-D-allofuranosyl}-7H-pyrrolo[2,3-d]pyrimidin-4-amine] | > 10000 nM
3 | Cc1ncnc2c1ccn2[C@@H]1O[C@H]([C@](C)(O)c2cc(C(F)F)c(F)c3c2CNCC3)[C@@](C)(O)[C@H]1O [Example 91, (2R,3S,4R,5R)-2-((R)-1-(6-(difluoromethyl)-5-fluoro-1,2,3,4-tetrahydroisoquinolin-8-yl)-1-hydroxyethyl)-3-methyl-5-(4-methyl-7H-pyrrolo[2,3-d]pyrimidin-7-yl)tetrahydrofuran-3,4-diol] | 0.54 nM
4 | C[C@H](c1cc(F)cc(C(F)F)c1)[C@H]1O[C@@H](n2ccc3c(N)ncnc32)[C@H](O)[C@]1(C)O (single isomer, unassigned) [Example 84] | 253 nM
5 | C[C@@]1(O)[C@@H]([C@@H](O)c2ccc(F)c(C(F)F)c2F)O[C@@H](n2ccc3c(N)ncnc32)[C@@H]1O [Example 68, 7-{(5S)-5-C-[3-(difluoromethyl)-2,4-difluorophenyl]-3-C-methyl-beta-D-ribofuranosyl}-7H-pyrrolo[2,3-d]pyrimidin-4-amine] | > 10000 nM
6 | C[C@@]1(O)[C@@H]([C@H](O)c2ccc(F)c(C(F)F)c2F)O[C@@H](n2ccc3c(N)ncnc32)[C@@H]1O [Example 67, 7-{(5R)-5-C-[3-(difluoromethyl)-2,4-difluorophenyl]-3-C-methyl-beta-D-ribofuranosyl}-7H-pyrrolo[2,3-d]pyrimidin-4-amine] | 435 nM
7 | C[C@@]1(O)[C@@H]([C@H](O)c2cc(F)cc(F)c2F)O[C@@H](n2ccc3c(N)ncnc32)[C@@H]1O [Example 52, 7-[(5R)-3-C-methyl-5-C-(2,3,5-trifluorophenyl)-beta-D-ribofuranosyl]-7H-pyrrolo[2,3-d]pyrimidin-4-amine] | 141 nM
8 | C[C@@]1(O)[C@@H]([C@@H](O)c2cc(F)c(F)c(C(F)F)c2)O[C@@H](n2ccc3c(N)ncnc32)[C@@H]1O [Example 65, 7-{(5S)-5-C-[3-(difluoromethyl)-4,5-difluorophenyl]-3-C-methyl-beta-D-ribofuranosyl}-7H-pyrrolo[2,3-d]pyrimidin-4-amine] | > 10000 nM
9 | C[C@@]1(O)[C@@H]([C@H](O)c2cc(F)cc(C(F)(F)F)c2)O[C@@H](n2ccc3c(N)ncnc32)[C@@H]1O [Example 58, 7-{(5R)-5-C-[3-fluoro-5-(trifluoromethyl)phenyl]-3-C-methyl-beta-D-ribofuranosyl}-7H-pyrrolo[2,3-d]pyrimidin-4-amine] | 301 nM
10 | Cc1ncnc2c1ccn2[C@@H]1O[C@H]([C@H](C)c2cc(C(F)F)c(F)c3c2CNCC3)[C@@](C)(O)[C@H]1O (single isomer, unassigned) [Example 92] | 278 nM
11 | C[C@@]1(O)[C@@H]([C@H](O)c2ccc(F)c(F)c2F)O[C@@H](n2ccc3c(N)ncnc32)[C@@H]1O [Example 50, 7-[(5R)-3-C-methyl-5-C-(2,3,4-trifluorophenyl)-beta-D-ribofuranosyl]-7H-pyrrolo[2,3-d]pyrimidin-4-amine] | 3240 nM
12 | C[C@@]1(O)[C@@H]([C@@H](O)c2cc(F)cc(C(F)F)c2)O[C@@H](n2ccc3c(N)ncnc32)[C@@H]1O [Example 5, (2R,3S,4R,5R)-5-(4-amino-7H-pyrrolo[2,3-d]pyrimidin-7-yl)-2-((S)-(3-(difluoromethyl)-5-fluorophenyl)(hydroxy)methyl)-3-methyltetrahydrofuran-3,4-diol] | 5060 nM

Next, values leading:

Row | EC50 | SMILES
13 | 14 nM | C[C@@]1(O)[C@@H]([C@H](O)c2cc(Cl)cc(Cl)c2)O[C@@H](n2ccc3c(N)ncnc32)[C@@H]1O [Example 18, 7-[(5R)-5-C-(3,5-dichlorophenyl)-3-C-methyl-beta-D-ribofuranosyl]-7H-pyrrolo[2,3-d]pyrimidin-4-amine]
14 | > 10000 nM | COc1ccc([C@H](O)[C@H]2O[C@@H](n3ccc4c(N)ncnc43)[C@H](O)[C@]2(C)O)cc1 [Example 33, 7-[(5S)-5-C-(4-methoxyphenyl)-3-C-methyl-beta-D-ribofuranosyl]-7H-pyrrolo[2,3-d]pyrimidin-4-amine]
15 | 403 nM | C[C@@]1(O)[C@@H]([C@H](O)c2cc(Cl)cc(C(F)(F)F)c2)O[C@@H](n2ccc3c(N)ncnc32)[C@@H]1O [Example 60, 7-{(5R)-5-C-[3-chloro-5-(trifluoromethyl)phenyl]-3-C-methyl-beta-D-ribofuranosyl}-7H-pyrrolo[2,3-d]pyrimidin-4-amine]
16 | 141 nM | C[C@@]1(O)[C@@H]([C@H](O)c2cccc(F)c2)O[C@@H](n2ccc3c(N)ncnc32)[C@@H]1O [Example 20, 7-[(5R)-5-C-(3-fluorophenyl)-3-C-methyl-beta-D-ribofuranosyl]-7H-pyrrolo[2,3-d]pyrimidin-4-amine]
17 | > 10000 nM | C[C@@]1(O)[C@@H]([C@@H](O)c2ccc(Cl)c(Cl)c2)O[C@@H](n2ccc3c(N)ncnc32)[C@@H]1O [Example 14, 7-[(5S)-5-C-(3,4-dichlorophenyl)-3-C-methyl-beta-D-ribofuranosyl]-7H-pyrrolo[2,3-d]pyrimidin-4-amine]
18 | 2060 nM | C[C@@]1(O)[C@@H]([C@H](O)c2cc(C(F)F)ccn2)O[C@@H](n2ccc3c(N)ncnc32)[C@@H]1O [Example 72, 7-{(5R)-5-C-[4-(difluoromethyl)pyridin-2-yl]-3-C-methyl-beta-D-ribofuranosyl}-7H-pyrrolo[2,3-d]pyrimidin-4-amine]
19 | 187 nM | C[C@@]1(O)[C@@H]([C@H](O)c2ccc(F)c(F)c2)O[C@@H](n2ccc3c(N)ncnc32)[C@@H]1O [Example 1, (2R,3S,4R,5R)-5-(4-amino-7H-pyrrolo[2,3-d]pyrimidin-7-yl)-2-((R)-(3,4-difluorophenyl)(hydroxy)methyl)-3-methyltetrahydrofuran-3,4-diol]
20 | > 10000 nM | C[C@@]1(O)[C@@H]([C@@H](O)c2cncc(C(F)F)c2)O[C@@H](n2ccc3c(N)ncnc32)[C@@H]1O [Example 75, 7-{(5S)-5-C-[5-(difluoromethyl)pyridin-3-yl]-3-C-methyl-beta-D-ribofuranosyl}-7H-pyrrolo[2,3-d]pyrimidin-4-amine]
21 | 407 nM | C[C@@]1(O)[C@@H]([C@H](O)c2cccc(Cl)c2F)O[C@@H](n2ccc3c(N)ncnc32)[C@@H]1O [Example 46, 7-[(5R)-5-C-(3-chloro-2-fluorophenyl)-3-C-methyl-beta-D-ribofuranosyl]-7H-pyrrolo[2,3-d]pyrimidin-4-amine]
22 | 1420 nM | C[C@@]1(O)[C@@H]([C@H](O)c2ccnc(C(F)F)c2)O[C@@H](n2ccc3c(N)ncnc32)[C@@H]1O [Example 78, 7-{(5R)-5-C-[2-(difluoromethyl)pyridin-4-yl]-3-C-methyl-beta-D-ribofuranosyl}-7H-pyrrolo[2,3-d]pyrimidin-4-amine]
23 | 227 nM | C[C@@]1(O)[C@@H]([C@H](O)c2cc(F)c(F)c(F)c2)O[C@@H](n2ccc3c(N)ncnc32)[C@@H]1O [Example 34, 7-[(5R)-3-C-methyl-5-C-(3,4,5-trifluorophenyl)-beta-D-ribofuranosyl]-7H-pyrrolo[2,3-d]pyrimidin-4-amine]
24 | 1060 nM | C[C@@]1(O)[C@@H]([C@H](O)c2cccc(F)c2F)O[C@@H](n2ccc3c(N)ncnc32)[C@@H]1O [Example 44, 7-[(5R)-5-C-(2,3-difluorophenyl)-3-C-methyl-beta-D-ribofuranosyl]-7H-pyrrolo[2,3-d]pyrimidin-4-amine]
25 | 32 nM | C[C@@]1(O)[C@@H]([C@H](O)c2cccc(C(F)F)c2)O[C@@H](n2ccc3c(N)ncnc32)[C@@H]1O [Example 56, 7-{(5R)-5-C-[3-(difluoromethyl)phenyl]-3-C-methyl-beta-D-ribofuranosyl}-7H-pyrrolo[2,3-d]pyrimidin-4-amine]
26 | > 10000 nM | COc1cccc([C@H](O)[C@H]2O[C@@H](n3ccc4c(N)ncnc43)[C@H](O)[C@]2(C)O)c1 [Example 37, 7-[(5S)-5-C-(3-methoxyphenyl)-3-C-methyl-beta-D-ribofuranosyl]-7H-pyrrolo[2,3-d]pyrimidin-4-amine]
